ChEMBL document CHEMBL1151353, “Normaytansine, a new antileukemic ansa macrolide from Maytenus buchananii” (1980)
Converted amounts (≈) assume the structure as drawn.

Experiments:
P388 = test: In vivo antitumor activity against mouse P388 cells in mouse at 100 mg/kg relative to control; format: functional
KB = test: Cytotoxicity against human KB cells; format: functional; settings: read-out: ED50 (the source's name)

Which T/C (P388) does the source give for COc1cc2cc(c1Cl)NC(=O)C[C@H](OC(=O)[C@H](C)N(C)C(C)=O)[C@]1(C)O[C@H]1[C@H](C)[C@@H]1C[C@@](O)(NC(=O)O1)[C@H](OC)/C=C/C=C(\C)C2 [NORMAYTANSINE] here?
The T/C was 181%.

And the EC50 (KB)?
Its EC50 is 1 ng/mL (≈ 1.47 nM).
